Results from patent US20070249607A1, “NK-1 AND SEROTONIN TRANSPORTER INHIBITORS” (Bristol-Myers Squibb Company, priority 2006, published 2007).
pIC50: −log10 of the molar value. Like-named read-outs stand apart in the source and are kept apart here.

Columns and labels:
[1] = target: T1, human serotonin transporters (Homo sapiens, UniProt P31645); assay: Serotonin transporter binding assay ([3H]-citalopram competition, HEK-hSERT cell membranes)
T1 construct: expressed in transfected cells
Method: Serotonin transporter binding assay. HEK-293 cells that stably express human serotonin transporters (HEK-hSERT cells) were grown at 37° C. in 5% CO2 as a monolayer in medium consisting of EMEM supplemented with 10% fetal bovine serum and G418 sulfate (500 μg/ml). To prepare membranes for radioligand binding experiments, cells were rinsed twice with phosphate-buffered saline (138 mM NaCl, 4.1 mM KCl, 5.1 mM Na2PO4, 1.5 mM KH2PO4, 11.1 mM glucose, pH 7.4). Cells were transferred from plates to polypropylene tubes (16×100 mm), centrifuged at 1,200×g for 5 min and were frozen at −80° C. until assay. Following centrifugation, pellets were resuspended by homogenization in buffer consisting of 50 mM Tris (pH 7.7 at 25° C.), 120 mM NaCl and 5 mM KCl and then centrifuged at 32,000×g for 10 min. Following centrifugation, supernatants were discarded and pellets were resuspended in buffer consisting of 50 mM Tris (pH 7.4 at 25° C.), 150 mM NaCl and 5 mM KCl. Membrane homogenates (200 μl/plate) were incubated with 1 nM [^3H]-citalopram (specific activity=85 Ci/mmol) and increasing concentrations of test compounds for 1 hr at 25° C. in a total volume of 250 μl. The assay buffer consisted of 50 mM Tris (pH 7.4 at 25° C.), 120 mM NaCl and 5 mM KCl (pH 7.4 with conc. HCl). Plates were incubated for 1 hr at 25° C., then filtered through 0.5% PEI treated Whatman GF/B filters using a Brandel cell harvester. Filters were washed three times with 3 ml of ice-cold tris wash buffer. Non-specific binding was defined with 10 μM fluoxetine. Amount of radioligand bound in the presence and absence of competitor was analyzed by plotting (-)log drug concentration versus the amount of radioligand specifically bound. The midpoint of the displacement curve (IC50, nM), signifies the potency. Ki values can be calculated using the method of Cheng and Prusoff (Cheng and Prusoff, BiochemicalPharmacology, Vol 22, pp. 3099-3108, Pergamon Press (1973)).

[2] = target: T2, neurokinin-1 (NK-1) receptor (Homo sapiens, UniProt P25103); assay: NK-1 Binding assay ([125I] Substance P competition, U373 cell membranes); settings: U373 membranes, [125I] Substance P displacement, read-out: NK-1 IC50
T2 construct: a human glioblastoma-astrocytoma cell line that endogenously expresses the neurokinin-1 (NK-1) receptor; endogenous in cells; host or cells: U373 human glioblastoma-astrocytoma cells (membranes)
Method: NK-1 Binding assay. U373 cells, a human glioblastoma-astrocytoma cell line that endogenously expresses the neurokinin-1 (NK-1) receptor, were grown in a monolayer culture at 37° C. in 5% CO2 and fed with Minimum Essential Medium (MEM) supplemented with 10% fetal bovine serum. Membranes were prepared as follows: Cells were washed twice with ice-cold phosphate-buffered saline (pH 7.4) and then incubated for 5-10 minutes with ice-cold 10 mM Tris buffer (pH 7.4) containing 5 mM EDTA. Cells were removed from plates, homogenized, and centrifuged at 32,000×g for 20 minutes. The resulting supernatant was discarded, and the pellet resuspended by homogenization in 50 mM Tris buffer (pH 7.4) containing 1 mM EDTA and centrifuged at 32,000×g for 20 minutes. The resulting supernatant was discarded, and the pellet resuspended by homogenization in NK-1 binding assay buffer (50 mM Tris-HCL (pH 7.4), 3 mM MnCl2, 200 μg/ml BSA, 5 μg/ml chymostatin, 40 μg/ml bacitracin and 4 μg/ml leupeptin).
On the day of an experiment the membrane preparation was thawed, homogenized and diluted with NK-1 binding assay buffer to the appropriate concentration. […] Substance P, at a concentration of […], and concentrations of drugs ranging from 10000 to 0.01 nM. Samples were incubated for 30 min at 20° C. then filtered through GF/B glass fiber filters (pretreated with 1% polyethyleneimine and 0.3% Triton X-100) using a Brandel cell harvester. The filters were then washed with 10 ml ice cold 50 mM Tris-HCL (pH 7.4) containing 3 mM MgCl2. […] The amount of radioligand bound in the presence and absence of competitor was analyzed by plotting (-)log drug concentration versus the amount of radioligand specifically bound. The midpoint of the displacement curve (IC50, nM), signifies the potency.

[3] = Table 1, HEK-hSERT membranes, [3H]-citalopram displacement, read-out: SERT IC50
[4] = Table 2, HEK-hSERT membranes, [3H]-citalopram displacement, read-out: SERT IC50

T2 sequence (P25103 whole entry): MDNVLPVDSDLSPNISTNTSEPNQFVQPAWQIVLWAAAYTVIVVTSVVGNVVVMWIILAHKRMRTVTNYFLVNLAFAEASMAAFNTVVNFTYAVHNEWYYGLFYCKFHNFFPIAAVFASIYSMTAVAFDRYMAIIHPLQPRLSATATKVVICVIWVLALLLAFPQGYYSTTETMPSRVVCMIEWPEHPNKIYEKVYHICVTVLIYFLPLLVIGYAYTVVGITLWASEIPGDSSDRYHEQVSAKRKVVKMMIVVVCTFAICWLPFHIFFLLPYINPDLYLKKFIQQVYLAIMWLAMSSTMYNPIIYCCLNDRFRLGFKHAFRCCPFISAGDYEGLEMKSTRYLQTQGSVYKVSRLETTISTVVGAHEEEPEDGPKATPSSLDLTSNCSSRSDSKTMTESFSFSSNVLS
T1 sequence (P31645 whole entry): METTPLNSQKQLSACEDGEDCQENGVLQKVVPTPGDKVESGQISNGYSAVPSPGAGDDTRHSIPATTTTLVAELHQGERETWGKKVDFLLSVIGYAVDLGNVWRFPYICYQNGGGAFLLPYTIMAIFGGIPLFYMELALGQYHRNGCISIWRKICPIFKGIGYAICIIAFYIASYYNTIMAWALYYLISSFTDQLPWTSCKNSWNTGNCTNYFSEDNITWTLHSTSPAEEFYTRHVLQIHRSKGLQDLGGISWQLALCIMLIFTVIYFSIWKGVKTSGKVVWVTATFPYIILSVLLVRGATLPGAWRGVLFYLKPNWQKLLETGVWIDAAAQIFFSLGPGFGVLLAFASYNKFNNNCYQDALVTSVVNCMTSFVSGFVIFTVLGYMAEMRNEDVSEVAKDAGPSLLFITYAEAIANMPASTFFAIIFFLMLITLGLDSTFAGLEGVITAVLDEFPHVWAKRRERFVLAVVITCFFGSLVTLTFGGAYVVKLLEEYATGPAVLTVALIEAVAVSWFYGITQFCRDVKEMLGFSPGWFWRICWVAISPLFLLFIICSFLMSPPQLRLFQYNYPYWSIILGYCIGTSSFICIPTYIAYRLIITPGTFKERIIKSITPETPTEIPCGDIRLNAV

Row | pIC50 [1, 3] | pIC50 ([2]; Table 1) | pIC50 [1, 4] | pIC50 ([2]; Table 2) | Structure (SMILES) | pIC50 [1]
1 | 7.00 to 11.00 | 7.00 to 11.00 | – | – | COc1ccc(-n2nnnc2C)cc1COCC1(c2ccccc2)CCNCC1 | –
2 | – | – | 6.52 to 7.00 | < 6.52 | CC(C)Cc1ccc(-c2cc(COCC3(c4ccccc4)CCNCC3)cc(C(F)(F)F)c2)cc1 | –
3 | 7.00 to 11.00 | < 6.52 | – | – | COc1ccc(Cl)cc1-c1cc(COCC2(c3ccccc3)CCNCC2)cc(C(F)(F)F)c1 | –
4 | 7.00 to 11.00 | 7.00 to 11.00 | – | – | N#Cc1ccc(-c2cc(COCC3(c4ccccc4)CCNCC3)cc(C(F)(F)F)c2)cn1 | –
5 | 7.00 to 11.00 | < 6.52 | – | – | COc1ccc(OC)c(-c2cc(COCC3(c4ccccc4)CCNCC3)cc(C(F)(F)F)c2)c1 | –
6 | – | – | 7.00 to 11.00 | 7.00 to 11.00 | N#Cc1c(F)cc(-c2cc(COCC3(c4ccccc4)CCNCC3)cc(C(F)(F)F)c2)cc1F | –
7 | – | – | 6.52 to 7.00 | < 6.52 | CCOC(=O)c1ccccc1-c1cc(COCC2(c3ccccc3)CCNCC2)cc(C(F)(F)F)c1 | –
8 | 7.00 to 11.00 | 7.00 to 11.00 | – | – | Fc1ccc(-c2cc(COCC3(c4ccccc4)CCNCC3)cc(C(F)(F)F)c2)c(F)c1 | –
9 | 6.52 to 7.00 | 6.52 to 7.00 | – | – | COc1c(C)cc(-c2cc(COCC3(c4ccccc4)CCNCC3)cc(C(F)(F)F)c2)cc1C | –
10 | 7.00 to 11.00 | < 6.52 | – | – | COc1ccc(-c2ccncc2)cc1COCC1(c2ccccc2)CCNCC1 | –
11 | – | – | 7.00 to 11.00 | 7.00 to 11.00 | O=[N+]([O-])c1ccc(-c2cc(COCC3(c4ccccc4)CCNCC3)cc(C(F)(F)F)c2)cc1 | –
12 | – | – | 7.00 to 11.00 | < 6.52 | COc1ccc2cc(-c3cc(COCC4(c5ccccc5)CCNCC4)cc(C(F)(F)F)c3)ccc2c1 | –
13 | – | – | 7.00 to 11.00 | 7.00 to 11.00 | O=C(OCc1ccccc1)c1ccc(-c2cc(COCC3(c4ccccc4)CCNCC3)cc(C(F)(F)F)c2)cc1 | –
14 | 7.00 to 11.00 | 7.00 to 11.00 | – | – | CSc1ccc(-c2cc(COCC3(c4ccccc4)CCNCC3)cc(C(F)(F)F)c2)cc1 | –
15 | – | – | 7.00 to 11.00 | 7.00 to 11.00 | COc1c(F)cc(-c2cc(COCC3(c4ccccc4)CCNCC3)cc(C(F)(F)F)c2)cc1F | –
16 | 7.00 to 11.00 | 7.00 to 11.00 | – | – | COc1cc(-c2cc(COCC3(c4ccccc4)CCNCC3)cc(C(F)(F)F)c2)ccn1 | –
17 | – | – | 6.52 to 7.00 | < 6.52 | CC(=O)c1ccccc1-c1cc(COCC2(c3ccccc3)CCNCC2)cc(C(F)(F)F)c1 | –
18 | 7.00 to 11.00 | 7.00 to 11.00 | – | – | N#Cc1ccc(-c2cc(COCC3(c4ccc(F)cc4)CCNCC3)cc(C(F)(F)F)c2)cc1 | –
19 | – | – | 7.00 to 11.00 | 7.00 to 11.00 | Fc1ccc(-c2cc(COCC3(c4ccc(F)cc4)CCNCC3)cc(C(F)(F)F)c2)cc1 | –
20 | – | – | 6.52 to 7.00 | < 6.52 | Cc1ccc(-c2cc(COCC3(c4ccccc4)CCNCC3)cc(C(F)(F)F)c2)c2ccccc12 | –
21 | 7.00 to 11.00 | 6.52 to 7.00 | – | – | Cn1cncc1-c1cc(COCC2(c3ccccc3)CCNCC2)cc(C(F)(F)F)c1 | –

Row | Structure (SMILES) | pIC50 [1, 3] | pIC50 ([2]; Table 1) | pIC50 [1, 4] | pIC50 ([2]; Table 2) | pIC50 [1]
22 | CN1CCC(COCc2cc(-c3ccc(F)cc3)cc(C(F)(F)F)c2)(c2ccccc2)CC1 | – | – | – | 7.00 to 11.00 | 7.00 to 11.00
23 | COc1cc(F)c(-c2cc(COCC3(c4ccccc4)CCN(C)CC3)cc(C(F)(F)F)c2)cc1F | – | – | – | 7.00 to 11.00 | 7.00 to 11.00
24 | CN1CCC(COCc2cc(-c3ccc(C#N)cc3)cc(C(F)(F)F)c2)(c2ccc(Br)cc2)CC1 | – | – | – | 7.00 to 11.00 | 7.00 to 11.00
25 | CN1CCC(COCc2cc(-c3ccc(F)cc3)cc(C(F)(F)F)c2)(c2ccc(F)cc2)CC1 | – | – | – | 7.00 to 11.00 | 7.00 to 11.00
26 | N#Cc1ccc(-c2cc(COCC3(c4ccccc4)CCN(Cc4ccccc4)CC3)cc(C(F)(F)F)c2)cc1 | – | – | < 6.52 | 7.00 to 11.00 | –
